{"source": "patent US20100105864A1", "about": "“PROPHYLACTIC OR THERAPEUTIC AGENT FOR DIARRHEA” (priority 2007, published 2010)", "key": {"Balb/c mice": {"tested_on": "Balb/c mice", "assay": "Anticancer agent (5-FU)-induced diarrhea model", "type": "in vivo", "experimental": "To each of Balb/c mice, an anticancer agent was administered to induce diarrhea, and γ-Glu-Val-Gly (hereinafter, referred to as “γEVG”) was studied for its inhibitory effect on diarrhea. To each of 6-week-old Balb/c mice fed with a low protein nutrient diet (4% casein diet) for 1 week, 5-FU (1 mg/animal/day) was intraperitoneally administered for consecutive 3 days. The diarrhea developed around Day 5 after the third administration of the anticancer agent, and the diarrhea appeared in all cases on Day 7. The presence or absence of diarrhea was determined based on the presence or absence of the stool in the tail head area. As the statistical test, a chi-square (χ^2) test for the control group (presence or absence of diarrhea) was employed, and p<0.05 was regarded as significant.\nEach administration of 0.01% γEVG was started in free water intake at the same time as the first administration of the anticancer agent, and continued until completion of the experiment.\nTo each of Balb/c mice, an anticancer agent was administered to induce diarrhea, and a calcium receptor activator (hereinafter, referred to as “CaSR agonist”) was studied for its inhibitory effect on diarrhea. To each of 6-week-old Balb/c mice fed with a low protein nutrient diet (4% casein diet) for 1 week, 5-FU (1 mg/animal/day) was intraperitoneally administered for consecutive 3 days. The diarrhea developed around Day 5 after the third administration of the anticancer agent, and the diarrhea appeared in all cases on Day 7. The presence or absence of diarrhea was determined based on the presence or absence of the stool in the tail head area. As the statistical test, a chi-square (χ^2) test for the control group (presence or absence of diarrhea) was employed, and p<0.05 was regarded as significant.\nThe administration of the CaSR agonist was started in free water intake at the same time as the administration of the low protein nutrient diet, and continued until completion of the experiment."}, "rat large intestine loop": {"tested_on": "rat large intestine loop", "assay": "Fluid absorption in rat large intestine loop method (PGE2-stimulated)", "type": "in vivo, rats", "conditions": "injected into loop 30 minutes after PGE2 i.p.; measured after 1 hour", "experimental": "The cecum and large intestine were extirpated from the abdomen of each of male SD (IGS) rats under pentobarbital anesthesia, and the site 5 cm away from the area just under the cecum was ligated to form a large intestine loop Immediately after the loop had been formed, PGE2 (4 μg/ml/kg, SIGMA) was intraperitoneally administered, and after 30 minutes, a medicament, which had been dissolved in 2 ml of Tyrode's solution (NaCl: 136.9 mM, KCl: 2.7 mM, CaCl2.2H2O: 1.8 mM, MgCl2.6H2O: 1.04 mM, NaH2PO4.2H2O: 0.04 mM, NaH2PO4.2H2O: 0.04 mM, glucose: 5.55 mM, NaHCO3: 11.9 mM), was injected into the prepared loop (the medicament solution was adjusted so that the pH would be 6.5 to 7.5). As a control, Tyrode's solution free of any medicament (vehicle) was administered. After 1 hour, the loop weight, the loop weight after solution removal, and the loop area were measured to calculate a solution weight per unit area remaining in the loop.\nThe remaining solution amount per unit area was calculated with the following equation:\nRemaining solution amount per unit area(g/cm^2)=(Loop weight−Loop weight after solution removal)/Loop area.\nThe fluid absorption was evaluated by calculating an inhibitory rate from the following equation:\nInhibitory rate(%)=100−(Remaining solution amount per unit area under drug administration−Remaining solution amount per unit area in base(average))/(Remaining solution amount per unit area under vehicle administration(average)−Remaining solution amount per unit area in base(average))×100.\n(Base=case where no stimulation is given (no treatment with PGE2))"}}, "note": "Marks after values point to notes of the source that are not given here.", "data": [{"compound": "C[C@@H](NCCCc1cccc(C(F)(F)F)c1)c1cccc2ccccc12", "note": "[cinacalcet, (R)—N-(3-(3-(trifluoromethyl)phenyl)propyl)-1-(1-naphthyl)ethylamine]", "values": [{"measurement": "mice that did not exhibit the diarrhea symptom", "setting": "Balb/c mice; 0.05% administration group, free water intake from start of low protein diet, control all 9/9 with diarrhea", "result": "2 out of 5"}, {"measurement": "Ratio of individuals that developed diarrhea", "setting": "Balb/c mice; 0.5% in free water intake from start of low protein diet, control 9/9, p < 0.05 chi-square", "result": "3/5*"}, {"measurement": "fluid absorption (inhibitory rate from remaining solution amount per unit area)", "setting": "rat large intestine loop", "result": "promoted fluid absorption"}]}]}
